Assay results: ChEMBL document CHEMBL3085656, “A medicinal chemistry perspective for targeting histone H3 lysine-79 methyltransferase DOT1L” (J Med Chem, 2013)

Legend:
MOLM-13 = assay: cells; settings: Homo sapiens
cells [1] = settings: Homo sapiens, MLL
cells [2] = settings: Homo sapiens, MLL; remark: listed apart in the source
THP-1 = assay: cells; settings: Homo sapiens
MV4-11 = assay: cells; settings: Homo sapiens

Row | EC50 (MOLM-13) | EC50 (cells [1]) | EC50 (cells [2]) | EC50 (THP-1) | EC50 (MV4-11) | Compound
1 | 4 nM | 700 nM | 700 nM | 4 nM | 4 nM | CC(C)N(CCCNC(=O)Nc1ccc(C(C)(C)C)cc1)C[C@H]1O[C@@H](n2ccc3c(N)ncnc32)[C@H](O)[C@@H]1O
2 | 4 nM | – | – | 4 nM | 4 nM | CC(C)N(C[C@H]1O[C@@H](n2cnc3c(N)ncnc32)[C@H](O)[C@@H]1O)[C@H]1C[C@@H](CCc2nc3cc(C(C)(C)C)ccc3[nH]2)C1 [PINOMETOSTAT]
